Measurements as given in US20200096503A1, “CELL MEMBRANE COATED MAGNETIC NANOPARTICLES AND ASSAYS FOR IDENTIFICATION OF TRANSMEMBRANE PROTEIN-BINDING COMPOUNDS” (The Board of Trustees of The University of Alabama, priority 2018, published 2020).

Tests used:
[1] = tested on: CMNPs prepared using parental HEK cell line not expressing nicotinic receptors; assay: Fishing with negative control CMNPs prepared from parental HEK cell line not expressing nicotinic receptors; assay type: binding; conditions: fishing experiments, data not shown
Protocol: (§1) Screening experiments can be conducted with samples of various level of complexity (artificial mixtures, natural extracts with known binders). First, artificial mixtures of known binders and non-binders can be used to evaluate selectivity. In a particular example, CMNPs containing nicotinic receptors were prepared. An artificial equimolar (100 nM) mixture of known binders and non-binders was also prepared. Known binders included known nicotinic receptor binders: nicotine (#1), anabasine (#2), cytisine (#3) and non-binders: butyrylcholine iodide (#4), berberine (#5), warfarin (#6) and caffeic acid (#7). First, the CMNPs (˜10^9) were placed in 0.5 mL artificial mixture and incubated. CMNPs were subsequently washed three times with ammonium acetate buffer. After washing, CMNPs were eluted with a buffer:methanol (9:1, v/v) mixture. In both the washing and elution steps, CMNPs were separated from supernatant using a magnet.
As an example, CMNPs containing nicotinic receptors were used to screen a different set of potential binders in a crude mixture: that of tobacco smoke condensates (FIG. 5). The results obtained with nicotinic receptor CMNPs were compared with those obtained for negative control CMNPs. […] Therefore, the only difference between nicotinic and negative control CMNPs is the absence of nicotinic receptors in control CMNPs. After three washes with ammonium acetate buffer, the CMNPs were eluted using first ammonium acetate buffer:methanol mixture (9:1, v/v; elutions 1-3), and then ammonium acetate buffer methanol mixture (1:9, v/v, elution 4).

nicotinic receptors = assay: Ligand fishing with CMNPs with immobilized nicotinic receptors, artificial mixture of known binders and non-binders; assay type: binding; conditions: equimolar (100 nM) artificial mixture; three washes with ammonium acetate buffer; elution buffer:methanol (9:1, v/v)
Protocol: Fishing experiments can be used to evaluate the CMNP assay. As an example, CMNPs were constructed with immobilized nicotinic receptors. Parameters include selectivity, detection limit, stability, and reuse of CMNPs. The assay or fishing experiment (FIG. 3A) involves magnetic separation of CMNPs with bound compounds after 20 min incubation in an artificial mixture of known binders and nonbinders. After 3 washes with buffer, receptor-bound compounds are released during the elution process. Eluted compounds can be analyzed by high-performance liquid chromatography coupled with diode-array detection and electrospray ionization tandem mass spectrometry (HPLC-DAD-MS).
as §1

TrkB receptors [2] = biological target: T1, TrkB receptors (Homo sapiens, UniProt Q16620); assay: Fishing experiments with CMNPs with immobilized TrkB receptors, artificial mixture; assay type: binding; conditions: equimolar (100 nM) mixture, HPLC-ESI-MS of washing and elution profiles
T1 construct: expressed in transfected cells; host or cells: SH-SY5Y neuroblastoma cells stably overexpressing TrkB
T1 sequence (Q16620 32-822): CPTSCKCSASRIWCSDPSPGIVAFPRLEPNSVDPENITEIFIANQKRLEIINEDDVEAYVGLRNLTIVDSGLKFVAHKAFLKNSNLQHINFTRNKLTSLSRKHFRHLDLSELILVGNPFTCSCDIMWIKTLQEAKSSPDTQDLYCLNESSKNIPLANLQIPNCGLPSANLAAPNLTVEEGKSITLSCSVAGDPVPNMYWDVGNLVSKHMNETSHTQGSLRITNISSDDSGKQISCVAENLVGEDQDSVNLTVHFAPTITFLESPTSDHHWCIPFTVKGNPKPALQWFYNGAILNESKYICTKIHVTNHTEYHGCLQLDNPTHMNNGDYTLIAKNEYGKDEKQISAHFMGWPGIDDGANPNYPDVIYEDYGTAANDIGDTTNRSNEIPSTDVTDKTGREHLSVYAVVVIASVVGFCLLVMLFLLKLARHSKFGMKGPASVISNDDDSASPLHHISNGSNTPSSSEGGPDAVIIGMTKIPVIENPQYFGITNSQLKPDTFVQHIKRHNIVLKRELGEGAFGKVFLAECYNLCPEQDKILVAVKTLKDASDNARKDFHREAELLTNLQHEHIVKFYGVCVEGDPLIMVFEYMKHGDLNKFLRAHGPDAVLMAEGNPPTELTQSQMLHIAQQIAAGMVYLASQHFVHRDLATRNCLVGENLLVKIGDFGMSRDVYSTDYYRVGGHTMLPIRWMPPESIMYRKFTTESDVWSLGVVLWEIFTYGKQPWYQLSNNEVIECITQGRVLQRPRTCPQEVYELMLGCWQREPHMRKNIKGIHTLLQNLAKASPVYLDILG
Protocol: Functional TrkB receptors (example of tyrosine kinase receptors) were immobilized on nanoparticles using the CMNPs technology described herein. Neuroblastoma SH-SY5Y cell line stably overexpressing TrkB receptors were used. Cell membrane fragments and nanoparticles used in the preparation of CMNPs were obtained using the previously optimized protocols, as described for the nicotinic receptors.
The fishing experiments were performed using the procedure previously optimized and described herein for nicotinic receptors. Washing and elution steps were performed using solvents previously reported for nicotinic receptor experiments. The difference between nicotinic and TrkB receptor experiments was with the type of artificial mixture components.

TrkB receptors [3] = biological target: T1, TrkB receptors; assay: Conversion of ATP to ADP by immobilized TrkB receptors on CMNPs (HPLC-ESI-MS); assay type: biochemical; conditions: for conversion of ATP to ADP by CMNPs with TrkB receptors: 5 mM ATP, 100 μM activator
Protocol: To further test the activity of the immobilized TrkB receptors, additional experiments that focused on determining the ability of the immobilized receptors to convert ATP to ADP were performed, a process commonly performed by all types of tyrosine kinase receptors. Tyrosine kinases, when active, convert ATP to ADP as they use phosphate groups to phosphorylate targeted proteins in the process of signal transduction inside a cell. […] 37° C.

[4] = tested on: negative control CMNPs prepared with the parental SH-SY5Y cell line without TrkB receptors; assay: Fishing with negative control CMNPs prepared with the parental SH-SY5Y cell line without TrkB receptors; assay type: binding
From the text: The use of negative control CMNPs prepared with the parental SH-SY5Y cell line without TrkB receptors allowed discernment between specific and non-specific interactions. […] Compounds interacting only with CMNPs expressing TrkB receptors and not interacting with negative control CMNPs are specifically binding with TrkB receptors.

Structure (SMILES) | nonspecific binding to CMNPs from parental HEK cell line not expressing nicotinic receptors [1] | retention by CMNPs with immobilized nicotinic receptors (washing/elution, HPLC) (nicotinic receptors) | other results
O=c1cccc2n1C[C@@H]1CNC[C@H]2C1 [cytisine] | lack of nonspecific binding | selectively retained | 
O=C(O)/C=C/c1ccc(O)c(O)c1 [caffeic acid] |  | absence | 
COc1ccc2cc3[n+](cc2c1OC)CCc1cc2c(cc1-3)OCO2 [berberine] |  | absence | 
O=c1cc(-c2ccccc2)oc2c(O)c(O)ccc12 [7,8-dihydroxyflavone] |  |  | retention by / interaction with CMNPs with immobilized TrkB receptors (TrkB receptors [2]): interacted only with CMNPs with TrkB receptors; retention by / interaction with CMNPs with immobilized TrkB receptors (TrkB receptors [2]; listed as 7,8-DHF): retained; conversion of ATP to ADP by CMNPs with TrkB receptors (TrkB receptors [3]; 24-hour incubation, 4° C.): almost complete conversion of ATP to ADP; conversion of ATP to ADP by CMNPs with TrkB receptors (TrkB receptors [3]; 30 and 60 min, 37° C.): progressing conversion of ATP to ADP; conversion of ATP to ADP by nanoparticles themselves (structures inside CMNPs) (TrkB receptors [3]; nanoparticles without cell membrane, ATP (5 mM), activator 100 μM): did not lead to the conversion of ATP to ADP; interaction with negative control CMNPs without TrkB receptors [4]: no interaction
CCCC(=O)OCC[N+](C)(C)C.[I-] [butyrylcholine, butyrylcholine iodide] |  | absence | 
CN1CCCC1c1cccnc1 (stereo not drawn) [nicotine] | lack of nonspecific binding | selectively retained | retention by / interaction with CMNPs with immobilized TrkB receptors (TrkB receptors [2]): retained small amount; retention by / interaction with CMNPs with immobilized TrkB receptors (TrkB receptors [2]; listed as Nicotine): interacted both with CMNPs with and without TrkB receptors; interaction with negative control CMNPs without TrkB receptors [4]: interacted both with CMNPs with and without TrkB receptors
c1cncc([C@@H]2CCCCN2)c1 [anabasine] | lack of nonspecific binding | selectively retained | 
